Measured values taken from US10288626B2, “Secreted tumor-associated cytochrome as a blood-based biomarker for cancer” (University of Kentucky Research Foundation, priority 2012, dated 2019).

Tests used:
NCI-H226 cells = experiment: Viability / growth of NCI-H226 squamous cell lung cancer cells treated with AG-205; assay type: cell-based; conditions: 96 hours
Experimental: FIG. 2 depicts Pgrmc1 expression and biological activity in SCLC cell lines. (A) Pgrmc1 expression was tested in a group of 3 commonly used SCLC cell lines (upper panel), and ku70 was used as a loading control (lower panel). […] Cells were maintained in medium lacking serum for the indicated time and in all cases, viability was determined by cell counting. (C) Pgrmc1 expression was inhibited by siRNA transfection (upper panel, lane 2) relative to the control transfection (upper panel, lane 1). […] Cells were maintained in media lacking serum for the indicated times. (E) The expression of the exogenous Pgrmc1-hbd protein was detected by western blot in NCI-H226 cells infected with a control adenovirus (lane 1), encoding LacZ, or the Pgrmc1-hbd expression virus (lane 2). The top panel was probed with an antibody to the HA epitope tag sequence, with which Pgrmc1-hbd is fused. (F) NCI-H226 cells were treated with increasing doses of the Pgrmc1 inhibitor AG-205 and maintained with serum (dashed line) or without serum (solid line) for 96 hours.
Tissue culture: […], SK-MES-1 and SW900 squamous cell lung cancer cells and A549 lung adenocarcinoma cells were obtained from the American type culture collection (ATCC) and cultured according to their instructions. The identities of the cell lines were confirmed by Genetica DNA Laboratories (Cincinnati, Ohio). […]
Conditioned media from control and Pgrmc1 knockdown A549 NSCLC cells were generated by incubating cells in serum-free DMEM media for 24 hours. […] For fluorescent activated cell sorting (FACS), cells were stained with propidium iodide and analyzed as described (Mallory et al., Mol Pharmacol 2005, 68: 1747-56). […] For viability assays, cells were plated in 24 well dishes, washed with PBS and harvested by trypsinization and counted using a hemocytometer. Where indicated, cells were plated in 96 well dishes, and viability was measured by 3-(4,5-Dimethylthiazol-2-yl)-2,5-diphenyltetrazolium bromide (MTT) assay, as described (Hand and Craven. J Cell Biochem 2003, 90:534-47).

tumor cells = conditions: cited from earlier work
EGFR = conditions: cited from earlier work

**Q.** For `Cc1ccc2c(c1)[C@H]1CN(C)CC[C@H]1N2C(=O)CSc1nnnn1-c1ccc(Cl)cc1` [AG-205], which IC50 (NCI-H226 cells; absence of serum, read-out: IC50, growth inhibition of NCI-H226 cells) is on record?
**A.** 9 µM

**Q.** What about the “effect on viability of NCI-H226 cells” value (NCI-H226 cells; absence of serum, increasing doses) of the same molecule?
**A.** loss of viability

**Q.** What about the “activity on growth of NCI-H226 cells” value (NCI-H226 cells; presence of serum) of the same molecule?
**A.** minimal activity

**Q.** What about the “effect on growth in tumor cells” value (tumor cells) of the same molecule?
**A.** inhibits growth

**Q.** What about the “effect on EGFR levels” value (EGFR) of the same molecule?
**A.** decreases EGFR levels
